Tests used:
[1] = molecular target: T1, KRAS protein (His-tagged GDP-loaded G12S 1-169) (Homo sapiens, UniProt P01116, G12S); experiment: Covalent modification of KRAS protein, intact-protein LC-MS; assay type: binding; details: 24hrs at room temperature, KRAS protein ~2 µM
T1 construct: His-tagged GDP-loaded G12S 1-169
Procedure, shortened: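 Percent covalent modification derives from deconvoluted intact-mass intensities of compound-adducted versus unmodified KRAS, measured by LC-ESI-MS. Before analysis, ~2 µM GDP-loaded His-KRAS 1-169 was exposed to compound for 24 h at room temperature and acidified with formic acid.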

K-Ras G12S = molecular target: T2, K-Ras G12S (Homo sapiens, UniProt P01116, G12S); experiment: HTRF assay of the K-Ras / SOS1 interaction; assay type: biochemical; details: IC50 (against K-Ras G12D) to IC50 (against K-Ras G12S)
T2 construct: made in house; host or cells: E. coli (e.g., BL21 (DE3))
Procedure, shortened: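 Compounds (duplicates, 10 µM to 0.01 µM) were incubated ≥~10 min with Eu-labelled GST-K-Ras G12S and XL665-labelled His-hSOS1 in HEPES pH 7.4 buffer containing NaCl, DTT, BSA and Igepal. Disruption measured as HTRF emission ratio 665/620 nm, fitted to IC50.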

GP2D cells = experiment: Cell proliferation assay (CellTiter-Glo), K-Ras G12D cells; assay type: cell-based; details: GP2D cells (K-Ras G12D); read-out: Inhibition of GP2D Cells (IC50)
Procedure, shortened: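 CellTiter-Glo luminescence, taken roughly 5 days after dosing, measured growth of G12D-mutant GP2D cells in DMEM/2 mM glutamine/10% FBS. Compound dilution series (e.g., 9 points, 3-fold) added the day after plating. Four-parameter fitting gave IC50.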

Q: With `N#Cc1c(N)sc2c(F)ccc(-c3c(Cl)cc4c(N5CCCC6(CCN(C(=O)n7cncn7)C6)C5)nc(OC[C@@]56CCCN5C[C@H](F)C6)nc4c3F)c12` (stereo partly drawn) [Compound A269, 4-(4-(2-(1H-1,2,4-triazole-1-carbonyl)-2,7-diazaspiro[4.5]decan-7-yl)-6-chloro-8-fluoro-2-(((2R,7aS)-2-fluorotetrahydro-1H-pyrrolizin-7a(5H)-yl)methoxy)quinazolin-7-yl)-2-amino-7-fluorobenzo[b]thiophene-3-carbonitrile] as the molecule, how does the “% G12S Modification at 24 hr.” value [1] read?
A: The value was “++ (++ indicates between about 1%- 20% labelling)”.

Q: What about the “Ratio of IC50 KRAS G12D vs. IC50 KRAS G12S” value (“Ratio” for short) (K-Ras G12S) of the same molecule?
A: Its value is “A (A: indicates that the ratio of IC50 against KrasG12D vs. IC50 against KrasG12S is 1-fold or greater)”.

Q: What about the IC50 (GP2D cells) of the same molecule?
A: The IC50 was 1000 to 10000 nM.

Q: `Nc1nc2c(-c3c(Cl)cc4c(N5CCOC6(CCN(C(=O)n7cncn7)C6)C5)nc(OC[C@@]56CCCN5C[C@H](F)C6)nc4c3F)ccc(F)c2s1` (stereo partly drawn) [Compound A221, (9-(7-(2-amino-7-fluorobenzo[d]thiazol-4-yl)-6-chloro-8-fluoro-2-(((2R,7aS)-2-fluorotetrahydro-1H-pyrrolizin-7a(5H)-yl)methoxy)quinazolin-4-yl)-6-oxa-2,9-diazaspiro[4.5]decan-2-yl)(1H-1,2,4-triazol-1-yl)methanone] was tested. Which “% G12S Modification at 24 hr.” value [1] did it give?
A: Its value is “++ (++ indicates between about 1%- 20% labelling)”.

Q: And the “Ratio” value (K-Ras G12S)?
A: The value was “A (A: indicates that the ratio of IC50 against KrasG12D vs. IC50 against KrasG12S is 1-fold or greater)”.

Q: And the IC50 (GP2D cells)?
A: The IC50 was 1000 to 10000 nM.

Q: How did the “% G12S Modification at 24 hr.” value [1] turn out when `Nc1nc2c(-c3c(Cl)cc4c(N5CCOC6(CN(C(=O)n7cncn7)C6)C5)nc(OC[C@@]56CCCN5C[C@H](F)C6)nc4c3F)ccc(F)c2s1` [Compound A273, (8-(7-(2-amino-7-fluorobenzo[d]thiazol-4-yl)-6-chloro-8-fluoro-2-(((2R,7aS)-2-fluorotetrahydro-1H-pyrrolizin-7a(5H)-yl)methoxy)quinazolin-4-yl)-5-oxa-2,8-diazaspiro[3.5]nonan-2-yl)(1H-1,2,4-triazol-1-yl)methanone] was run?
A: The value was “+++ (+++ indicates greater than 20% labelling)”.

Q: And the “Ratio” value (K-Ras G12S)?
A: The value was “A (A: indicates that the ratio of IC50 against KrasG12D vs. IC50 against KrasG12S is 1-fold or greater)”.

Q: What about the IC50 (GP2D cells) of the same molecule?
A: Its IC50 is 1000 to 10000 nM.

Q: What does the source list for `N#CC[C@H]1CN(c2nc(OC[C@@]34CCCN3C[C@H](F)C4)nc3c(F)c(-c4ccc(F)c5sc(N)nc45)c(Cl)cc23)CCN1C(=O)n1cncn1` [Compound A145, 2-((2S)-4-(7-(2-amino-7-fluorobenzo[d]thiazol-4-yl)-6-chloro-8-fluoro-2-(((2R,7aS)-2-fluorotetrahydro-1H-pyrrolizin-7a(5H)-yl)methoxy)quinazolin-4-yl)-1-(1H-1,2,4-triazole-1-carbonyl)piperazin-2-yl)acetonitrile]?
A: % G12S Modification at 24 hr. [1]: +++ (+++ indicates greater than 20% labelling); Ratio of IC50 KRAS G12D vs. IC50 KRAS G12S (K-Ras G12S): A (A: indicates that the ratio of IC50 against KrasG12D vs. IC50 against KrasG12S is 1-fold or greater); IC50 (GP2D cells): 1000 to 10000 nM

Q: With `N#Cc1c(N)sc2c(F)ccc(-c3c(Cl)cc4c(N5CC6(CN(C(=O)n7cncn7)CCO6)C5)nc(OC[C@@]56CCCN5C[C@H](F)C6)nc4c3F)c12` [Compound A140, 4-(4-(8-(1H-1,2,4-triazole-1-carbonyl)-5-oxa-2,8-diazaspiro[3.5]nonan-2-yl)-6-chloro-8-fluoro-2-(((2R,7aS)-2-fluorotetrahydro-1H-pyrrolizin-7a(5H)-yl)methoxy)quinazolin-7-yl)-2-amino-7-fluorobenzo[b]thiophene-3-carbonitrile] as the molecule, how does the “% G12S Modification at 24 hr.” value [1] read?
A: Its value is “+++ (+++ indicates greater than 20% labelling)”.

Q: What about the “Ratio” value (K-Ras G12S) of the same molecule?
A: The value was “A (A: indicates that the ratio of IC50 against KrasG12D vs. IC50 against KrasG12S is 1-fold or greater)”.

Q: And the IC50 (GP2D cells)?
A: The IC50 was 1000 to 10000 nM.

Q: Which “% G12S Modification at 24 hr.” value [1] does the source give for `C#Cc1c(F)ccc2cccc(-c3ccc4c(N5CCN(C(=O)n6cncn6)CC(F)(F)C5)nc(OC[C@@]56CCCN5C[C@H](F)C6)nc4c3F)c12` [Compound A107, (4-(7-(8-ethynyl-7-fluoronaphthalen-1-yl)-8-fluoro-2-(((2R,7aS)-2-fluorotetrahydro-1H-pyrrolizin-7 a(5H)-yl)methoxy)quinazolin-4-yl)-6,6-difluoro-1 ,4-diazepan-1-yl)(1H-1,2,4-triazol-1-yl)methanone] here?
A: Its value is “++ (++ indicates between about 1%- 20% labelling)”.

Q: What about the “Ratio” value (K-Ras G12S) of the same molecule?
A: The value was “A (A: indicates that the ratio of IC50 against KrasG12D vs. IC50 against KrasG12S is 1-fold or greater)”.

Q: What about the IC50 (GP2D cells) of the same molecule?
A: The IC50 was 1000 to 10000 nM.

Q: Which results are given for `N#Cc1c(N)sc2c(F)ccc(-c3c(Cl)cc4c(N5CCN(C(=O)n6cncn6)CC(F)(F)C5)nc(OC[C@@]56CCCN5C[C@H](F)C6)nc4c3F)c12` [Compound A280, 2-amino-4-(6-chloro-4-(6,6-difluoro-4-(1H-1,2,4-triazole-1-carbonyl)-1,4-diazepan-1-yl)-8-fluoro-2-(((2R,7aS)-2-fluorotetrahydro-1H-pyrrolizin-7a(5H)-yl)methoxy)quinazolin-7-yl)-7-fluorobenzo[b]thiophene-3-carbonitrile]?
A: % G12S Modification at 24 hr. [1]: +++ (+++ indicates greater than 20% labelling); Ratio of IC50 KRAS G12D vs. IC50 KRAS G12S (K-Ras G12S): A (A: indicates that the ratio of IC50 against KrasG12D vs. IC50 against KrasG12S is 1-fold or greater); IC50 (GP2D cells): ≤ 1000 nM

Q: With `N#Cc1cnn(C(=O)N2CCN(c3nc(OC[C@@]45CCCN4C[C@H](F)C5)nc4c(F)c(-c5ccc(F)c6sc(N)nc56)c(Cl)cc34)CC2)c1` [Compound A252, 1-(4-(7-(2-amino-7-fluorobenzo[d]thiazol-4-yl)-6-chloro-8-fluoro-2-(((2R,7aS)-2-fluorotetrahydro-1H-pyrrolizin-7a(5H)-yl)methoxy)quinazolin-4-yl)piperazine-1-carbonyl)-1H-pyrazole-4-carbonitrile] as the molecule, how does the “% G12S Modification at 24 hr.” value [1] read?
A: The value was “+++ (+++ indicates greater than 20% labelling)”.

Q: What about the “Ratio” value (K-Ras G12S) of the same molecule?
A: The value was “A (A: indicates that the ratio of IC50 against KrasG12D vs. IC50 against KrasG12S is 1-fold or greater)”.

Q: What about the IC50 (GP2D cells) of the same molecule?
A: Its IC50 is 1000 to 10000 nM.

Q: `CC(=O)c1c(F)ccc2cc(O)cc(-c3ccc4c(N5CCCC6(CN(C(=O)n7cncn7)C6)C5)nc(OC[C@@]56CCCN5C[C@H](F)C6)nc4c3F)c12` [Compound A154, 1-(8-(4-(2-(1H-1,2,4-triazole-1-carbonyl)-2,6-diazaspiro[3.5]nonan-6-yl)-8-fluoro-2-(((2R,7aS)-2-fluorotetrahydro-1H-pyrrolizin-7a(5H)-yl)methoxy)quinazolin-7-yl)-2-fluoro-6-hydroxynaphthalen-1-yl)ethan-1-one] was tested. Which “% G12S Modification at 24 hr.” value [1] did it give?
A: Its value is “+++ (+++ indicates greater than 20% labelling)”.

Q: And the “Ratio” value (K-Ras G12S)?
A: The value was “A (A: indicates that the ratio of IC50 against KrasG12D vs. IC50 against KrasG12S is 1-fold or greater)”.

Q: What about the IC50 (GP2D cells) of the same molecule?
A: The IC50 was 1000 to 10000 nM.

Q: For `N#Cc1nccn1C(=O)N1CCN(c2nc(OC[C@@]34CCCN3C[C@H](F)C4)nc3c(F)c(-c4ccc(F)c5sc(N)nc45)c(Cl)cc23)CC(F)(F)C1` [Compound A204, 1-(4-(7-(2-amino-7-fluorobenzo[d]thiazol-4-yl)-6-chloro-8-fluoro-2-(((2R,7aS)-2-fluorotetrahydro-1H-pyrrolizin-7a(5H)-yl)methoxy)quinazolin-4-yl)-6,6-difluoro-1,4-diazepane-1 - carbonyl)-1H-imidazole-2-carbonitrile], which “% G12S Modification at 24 hr.” value [1] is on record?
A: Its value is “++ (++ indicates between about 1%- 20% labelling)”.

Q: What about the “Ratio” value (K-Ras G12S) of the same molecule?
A: The value was “A (A: indicates that the ratio of IC50 against KrasG12D vs. IC50 against KrasG12S is 1-fold or greater)”.

Q: What about the IC50 (GP2D cells) of the same molecule?
A: The IC50 was 1000 to 10000 nM.

Q: What does the source list for `N#Cc1c(N)sc2c(F)ccc(-c3c(Cl)cc4c(N5CCC6C5CCCN6C(=O)n5cncn5)nc(OC[C@@]56CCCN5C[C@H](F)C6)nc4c3F)c12` (stereo partly drawn) [Compound A181, 4-(4-(4-(1H-1,2,4-triazole-1-carbonyl)octahydro-1H-pyrrolo[3,2-b]pyridin-1-yl)-6-chloro-8-fluoro-2-(((2R,7aS)-2-fluorotetrahydro-1H-pyrrolizin-7a(5H)-yl)methoxy)quinazolm-7-yl)-2-amino-7-fluorobenzo[b]thiophene-3-carbonitrile]?
A: % G12S Modification at 24 hr. [1]: +++ (+++ indicates greater than 20% labelling); Ratio of IC50 KRAS G12D vs. IC50 KRAS G12S (K-Ras G12S): A (A: indicates that the ratio of IC50 against KrasG12D vs. IC50 against KrasG12S is 1-fold or greater); IC50 (GP2D cells): ≤ 1000 nM

Q: Which results are given for `Nc1nc2c(-c3c(Cl)cc4c(N5CC6(CCN(C(=O)n7cncn7)C6)C5)nc(OC[C@@]56CCCN5C[C@H](F)C6)nc4c3F)ccc(F)c2s1` [Compound A279, (2-(7-(2-amino-7-fluorobenzo[d]thiazol-4-yl)-6-chloro-8-fluoro-2-(((2R,7aS)-2-fluorotetrahydro-1H-pyrrolizin-7a(5H)-yl)methoxy)quinazolin-4-yl)-2,6-diazaspiro[3.4]octan-6-yl)(1H-1,2,4-triazol-1-yl)methanone]?
A: % G12S Modification at 24 hr. [1]: +++ (+++ indicates greater than 20% labelling); Ratio of IC50 KRAS G12D vs. IC50 KRAS G12S (K-Ras G12S): A (A: indicates that the ratio of IC50 against KrasG12D vs. IC50 against KrasG12S is 1-fold or greater); IC50 (GP2D cells): 1000 to 10000 nM
